The results in this text go back to patent US9108933B2, “Method for treating proliferative disorders associated with mutations in c-Met” (Synta Pharmaceuticals Corp., priority 2007, dated 2015).

For data set [1], the system named is MNK45 cell line, c-Met amplified human gastric carcinoma. The data set can be described thus: Cell survival of MKN45 cells (Cell Counting Kit-8). The format is cell-based. To be noted: 72 hours. As to the method: MNK45 cell line, (DSMZ #ACC 409), which is a c-Met amplified human gastric carcinoma cell line, was obtained from the Deutsche Sammlung von Mikroorganismen and Zellkulturen GmbH (DSMZ; Braunschweig, Germany). […] MNK45 cells (20,000 cells/well) were cultured in 96-well plates and maintained at 37° C. for several hours. The cells were incubated at 37° C. for 72 hours with various concentrations of compound 226 of the invention, 17AAG, or DMAG. 17AAG and 17DMAG are Hsp90 inhibitors that are currently in clinical trials and are used here as positive controls for Hsp90 inhibition. Cell survival was measured with Cell Counting Kit-8 (Dojindo Laboratories, Cat # CK04).
(In general: Tetrazolium dyes change colour on reduction, which living cells bring about.)

Data set [2] relates to c-Met on MKN45 c-Met amplified human gastric carcinoma cells. As to the kind of experiment: Flow cytometric analysis of c-Met on the surface of MKN45 cells. To be noted: MKN-45 cell line, 18 hours; read-out: IC50 for degradation of c-Met. It counts as cell-based. As to the method:
(§1) Flow cytometric analysis was used to monitor the degradation of c-Met over-expressed on the surface of the ACHN human renal cell carcinoma cell line which contains the juxtamembrane domain mutation (C3223T: T1010I) and is constitutively active, and the MKN45 which is a c-Met amplified human gastric carcinoma cell line. ACHN and MKN45 cells (5×10^5 cells) were treated with Compound 226, 17-AAG or 17-DMAG for 18 hours. After treatment the cells were stained with FITC conjugated c-MET antibody. The expression of the c-Met cell surface proteins was measured by flow cytometry analysis (see FIG. 4 for ACHN cells and FIG. 5 for MKN45 cells). The IC50 value was determined by XLfit software.

For data set [3], the system named is mutant c-Met (T1010I) on ACHN human renal cell carcinoma cells. The data set can be described thus: Flow cytometric analysis of c-Met on the surface of ACHN cells. The format is cell-based. To be noted: 18 hours, read-out: IC50 for degradation of mutant c-Met. As to the method: as §1
In general terms: A flow cytometer gives signals particle by particle.

In the next data set the test system is Her2. As to the kind of experiment: Degradation of Her2 in BT-474 cells, Western blot (Method 1). It counts as cell-based, human. To be noted: overnight. As to the method:
Human high-Her2 breast carcinoma BT474 (HTB-20), SK-BR-3 (HTB-30) and MCF-7 breast carcinoma (HTB-22) from American Type Culture Collection, VA, USA were grown in Dulbecco's modified Eagle's medium with 4 mM L-glutamine and antibiotics (100 IU/ml penicillin and 100 ug/ml streptomycine; GibcoBRL). To obtain exponential cell growth, cells were trypsinized, counted and seeded at a cell density of 0.5×10^6 cells/ml regularly, every 3 days. All experiments were performed on day 1 after cell passage.
After treatment, each cytoplasmic sample was prepared from 1×10^6 cells by incubation of cell lysis buffer (#9803, cell Signaling Technology) on ice for 10 minutes. The resulting supernatant used as the cytosol fractions were dissolved with sample buffer for SDS-PAGE and run on a SDS-PAGE gel, blotted onto a nitrocellulose membrane by using semi-dry transfer. Non-specific binding to nitrocellulose was blocked with 5% skim milk in TBS with 0.5% Tween at room temperature for 1 hour, then probed with anti-Her2/ErB2 mAb (rabbit IgG, #2242, Cell Signaling) and anti-Tubulin (T9026, Sigma) as housekeeping control protein. HRP-conjugated goat antirabbit IgG (H+L) and HRP-conjugated horse anti-mouse IgG (H+L) were used as secondary Ab (#7074, #7076, Cell Signaling) and LumiGLO reagent, 20× Peroxide (#7003, Cell Signaling) was used for visualization.
On the technique in general: A western blot detects proteins with antibodies after separation by electrophoresis.

In the next data set the test system is Hsp90 protein. As to the kind of experiment: Malachite Green assay of ATPase activity of Hsp90 protein. It counts as biochemical. To be noted: 37° C., 4 hours. As to the method:
Hsp90 protein was obtained from Stressgen (Cat#SPP-770). Assay buffer: 100 mM Tris-HCl, Ph7.4, 20 mM KCl, 6 mM MgCl2. […] Malachite green reagent was added to the reaction. […] The plate was read by an ELISA reader with an absorbance at 620 nm.

Data set [4] has as its system human c-MET amplified gastric carcinoma tumor cell line MKN-45. As to the kind of experiment: MKN-45 nude mouse xenograft model. It counts as in vivo. To be noted: 50 mg/kg body weight, i.v., 3 times per week, 9 doses. As to the method:
The human gastric carcinoma cell line, MKN-45 (DSMZ #ACC 409), was obtained from the Deutsche Sammlung von Mikroorganismen and Zellkulturen GmbH (DSMZ; Braunschweig, Germany). […] FBS was obtained from ATCC and all other reagents were obtained from Invitrogen Corp. (Carlsbad, Calif., USA). Cells that had been cryopreserved in liquid nitrogen were rapidly thawed at 37° C. and transferred to a tissue culture flask containing growth media and then incubated at 37° C. in a 5% CO2 incubator. To expand the cell line, growth media was replaced every 2-3 days until the flask became 90% confluent, typically in 5-10 days. Cultures were passaged by washing with 10 mL of room temperature phosphate buffered saline (PBS) and then disassociating cells by adding 5 mL 1× trypsin-EDTA and incubating at 37° C. until the cells detached from the surface of the flask. To inactivate the trypsin, 5 mL of growth media was added and then the contents of the flask were centrifuged to pellet the cells. The supernatant was aspirated and the cell pellet was resuspended in 10 mL of growth media and the cell number determined using a hemocytometer. Approximately 3-6×10(6) cells per flask were seeded into 175 cm^2 flasks containing 50 mL of growth media and incubated at 37° C. in a 5% CO2 incubator. […]
Tumors were then permitted to develop in vivo until the majority reached 100-200 mm^3 in tumor volume, which required ˜2 weeks following implantation. […] Tumor volumes (V) were calculated by caliper measurement of the width (W), length (L) and thickness (T) of tumors using the following formula: V=0.5236×(L×W×T). Animals were randomized into treatment groups so that the average tumor volumes of each group were similar at the start of dosing. % T/C values, as a measure of efficacy, were determined as follows: • (i) If ΔT>0: % T/C=(ΔT/ΔC)×100 • (ii) If ΔT<0: % T/C=(ΔT/T0)×100 • (iii) ΔT=Change in average tumor volume between start of dosing and the end of study. • (iv) ΔC=Change in average tumor volume between start of dosing and the end of study. • (v) T0=Average tumor volume at start of dosing. […]

The test system of data set [5] is human tumor cell line MDA-MB-435S. The data set can be described thus: MDA-MB-435S nude mouse xenograft model. The format is in vivo. To be noted: 300 mg/kg body weight, IP, 5 days per week for 3 weeks. As to the method: FBS was obtained from Sigma-Aldrich Corp. (St. Louis, Mo., USA), and all other reagents were obtained from Invitrogen Corp. (Carlsbad, Calif., USA). Approximately 4-5×10(6) cells that had been cryopreserved in liquid nitrogen were rapidly thawed at 37° C. and transferred to a 175 cm^2 tissue culture flask containing 50 ml of growth media and then incubated at 37° C. in a 5% CO2 incubator. The growth media was replaced every 2-3 days until the flask became 90% confluent, typically in 5-7 days. To passage and expand the cell line, a 90% confluent flask was washed with 10 ml of room temperature phosphate buffered saline (PBS) and the cells were disassociated by adding 5 ml 1× Trypsin-EDTA (Invitrogen) and incubating at 37° C. until the cells detached from the surface of the flask. […] The supernatant was aspirated and the cell pellet was resuspended in 10 ml of growth media and the cell number determined using a hemocytometer. […]
Six to eight week old, female Crl:CD-1-nuBR (nude) mice were obtained from Charles River Laboratories (Wilmington, Mass., USA). […] Tumor volumes (V) were calculated by caliper measurement of the width (W), length (L) and thickness (T) of tumors using the following formula: V=[…]×(L×W×T) Animals were randomized into treatment groups so that the average tumor volumes of each group were similar at the start of dosing. […]

“Also recorded” adds a separate entry of the source.

For `CO[C@H]1/C=C\C=C(/C)C(=O)NC2=CC(=O)C(NCCN(C)C)=C(C[C@@H](C)C[C@H](OC)[C@H](O)[C@@H](C)/C=C(\C)[C@@H]1OC(N)=O)C2=O` [Compound 17-DMAG], the IC50 (as a rule, the point on the concentration scale where inhibition reaches its midpoint) in data set [1] turned out to be 14 nM; in data set [2], 70 nM; in data set [3], 95 nM.

Take `Oc1ccc(-c2nnc(S)n2-c2cccc3ccccc23)c(O)c1` [Compound 108, 3-(2,4-Dihydroxy-3-phenyl)-4-(naphthalen-1-yl)-5-mercapto-triazole]: the “degradation of Her2” value in the data set on Her2 (0.5 μM) is on record as “partially degradated”; in the data set on Her2 (2 μM), “partially degradated”; in the data set with Her2 (5 μM), “almost completely degraded”. For the same compound, the “inhibition of ATPase activity of Hsp90” value in the data set on Hsp90 protein (4 μM) was “significant inhibition”; in the data set with Hsp90 protein (40 μM), “even greater inhibition of ATPase activity of Hsp90 than geldanamycin”.

As for `C=CCNC1=C2C[C@@H](C)C[C@H](OC)[C@H](O)[C@@H](C)/C=C(\C)[C@H](OC(N)=O)[C@@H](OC)/C=C\C=C(/C)C(=O)NC(=CC1=O)C2=O` [Compound 17-AAG], the concentration for half-maximal inhibition (IC50) is 202 nM in data set [2] and 244 nM in data set [3].

For `CC(C)c1cc(-c2nnc(O)n2-c2ccc3c(ccn3C)c2)c(O)cc1O` [Compound 226, 3-(2,4-dihydroxy-5-isopropyl-phenyl)-4-(1-methyl-indol-5-yl)-5-hydroxy-[1,2,4] triazole], the 50% inhibitory concentration (IC50) in data set [1] (Homo sapiens) was determined as 8 nM; in data set [2], 26 nM; in data set [3], 18 nM. In addition, the toxicity result in data set [4] is given as “not associated with excessive toxicity; also recorded: Overt toxicity was not observed”. For the same compound, in data set [4] (day 36), the “% T/C value” stood at 8%. In data set [4] (day 36), the “average bodyweight loss relative to the start of the study” value is −3.5%.

Turning to `C=CCNC1=C2C[C@@H](C)C[C@H](OC)[C@H](O)[C@@H](C)/C=C(\C)[C@H](OC(N)=O)[C@@H](OC)/C=C\C=C(/C)C(=O)NC(=CC1=O)C2=O` [Compound 17AAG], the half-maximal inhibitory concentration (IC50) in data set [1] was found to be 45 nM.

For the compound `CCc1cc(-c2nnc(S)n2-c2cccc3ccccc23)c(O)cc1O` [Compound 49, 3-(2,4-Dihydroxy-5-ethyl-phenyl)-4-(naphthalen-1-yl)-5-mercapto-triazole], in data set [5], the “toxicity (effect on body weights)” value is given as “not associated with significant toxicity”.
